This is an account of results in patent publication US9896442B2, “Antifungal treatment” (Wisconsin Alumni Research Foundation, priority 2010, dated 2018).

For one data set, the system named is C. gattii. Briefly: Microbroth dilution (MIC), CLSI M27. In kind it is cell-based. Conditions: FIG. 5G. The protocol:
(§1) Clinical and Laboratory Standards Institute (CLSI) protocol M27 was used to quantify the minimum inhibitory concentration (MIC) of compounds 13 and 33 against yeast fungal pathogens (13). Briefly, compounds were solubilized in 100% DMSO and serially diluted two-fold in a 96 well plate in 100 μl of RPMI medium. A 100 μl aliquot of RPMI medium containing 3×10^3 yeast/ml of an overnight culture was then added to each well. Medium, medium+yeast, and medium+yeast+DMSO wells were prepared as controls. Each well was prepared in triplicate. The plates were incubated at 35° C. for 48 hours. The MIC concentration was defined as the concentration at which no growth was visible by eye and the results verified by plating on YPD agar. The experiment was performed in duplicate. MIC concentrations were also defined against filamentous fungi using the CLSI protocol M38 (14). This protocol only differed from M27 in that 100 μl of medium containing 4×10^5 spores/ml were added instead of yeast (FIG. 5A-I).
In general terms: Broth dilution looks for growth in wells or tubes with falling amounts of substance.

In another data set the test system is Cryptococcus neoformans. The experiment in a line: Microbroth dilution (MIC), CLSI M27. Conditions: FIG. 5F. Type of data set: cell-based. The protocol:
as §1

Another data set concerns C. glabrata. The experiment in a line: Microbroth dilution (MIC), CLSI M27. Conditions: FIG. 5E. Type of data set: cell-based. The protocol: as §1
Another data set has as its system C. krusei. Briefly: Microbroth dilution (MIC), CLSI M27. Type of data set: cell-based. The following applies: FIG. 5D. The protocol:
as §1

A further data set relates to Candida albicans. Briefly: Microbroth dilution (MIC), CLSI M27. Type of data set: cell-based. The following applies: FIG. 5A. The protocol: as §1
A further data set concerns C. lusitaniae. Briefly: Microbroth dilution (MIC), CLSI M27. The following applies: FIG. 5C. Type of data set: cell-based. The protocol:
as §1

Data set [1] deals with C. albicans resistant to conventional antifungals fluconazole and micafungin. Briefly: Microbroth dilution (MIC), CLSI M27. Type of data set: cell-based, Candida albicans. Conditions: FIG. 5B. The protocol:
as §1

In another data set the test system is Aspergillus flavus. The experiment in a line: Microbroth dilution against plant fungal pathogen. In kind it is cell-based. Conditions: four isolates of A. flavus; FIG. 8. The protocol:
as §1, with “M38” left out, “5A-I). […] Briefly, the MICs of compounds 13 and 33 were determined for each of the 4 isolates and compared with the conventional antifungal compound, voriconazole (available from Sigma). […]” for “5A-I).”

Data set [2] concerns wild type Aspergillus fumigatus. The experiment in a line: Microbroth dilution (MIC), CLSI M38. In kind it is cell-based. The following applies: FIG. 5H. The protocol:
as §1

Another data set relates to Candida albicans biofilm. Briefly: In vitro biofilm drug synergy (checkerboard, XTT). Type of data set: cell-based. Conditions: for Synergy with Fluconazole by fractional inhibitory concentration (FIC): FIC from EC25, values ≦0.5 indicate synergy, FIG. 9; for growth reduction: alone and in combination. The protocol: Candida biofilms were formed in 96-well flat-bottom polystyrene plates (Fischer) as described previously ([…], Crawford K, Andes D R. Optimizing a Candida Biofilm Microtiter Plate Model for Measurement of Antifungal Susceptibility by XTT Assay. J. Clin. Microbiol. 2011 Jan., 2). Cells from an overnight culture grown in YPD shaking at 37° C. were enumerated by hemocytometer and suspended in RPMI-MOPS (Fisher) at a concentration of 10^6 cells/ml. A 100 μl of inoculum was added to each well of the plate. After 6 h incubation at 37° C., biofilms were gently washed twice with phosphate-buffered saline (PBS) to remove unattached cells. […] The ranges of concentrations of the fluconazole used included the standard doses given to humans. After overnight incubation at 37° C., biofilms were washed twice with PBS. Measurement of biofilm cell metabolic activity using the XTT reduction assay was performed as previously described ([…], Crawford K, Andes D R. Optimizing a Candida Biofilm Microtiter Plate Model for Measurement of Antifungal Susceptibility by XTT Assay. J. Clin. Microbiol. 2011 January, […], and Andes D. Synergistic Effect of Calcineurin Inhibitors and Fluconazole against Candida albicans Biofilms. Antimicrob Agents Chemother. 2008 March; 52(3): 1127-1132). Briefly, 90 μl of XTT at 1 mg/ml (Sigma) and 10 μl phenazine methosulfate at 320 μg/ml (Sigma) were added to each well, and the plate was incubated at 37° C. for 2 h. Viable cell number was assessed using the Absorbance at 492nm measured using an automated plate reader. Assays were performed in duplicate. The drug concentration resulting in a 25% reduction in optical density compared to the no-drug control wells was determined (EC25).

The test system of data set [3] is drug resistant A. fumigatus. The experiment in a line: Microbroth dilution (MIC), CLSI M38. In kind it is cell-based, Aspergillus fumigatus. The following applies: FIG. 5I. The protocol: as §1
The subject of the next data set is Drk1 reporter strain. Briefly: Drk1 reporter strain corroboration. In kind it is cell-based. The text has this: The results of the Hik1 histidine kinase reporter strain were corroborated with a Drk1 reporter strain, especially regarding compounds 13 and 33. Dr. David Andes, Dr. Nancy Keller, and the clinical microbiology laboratory at the University of Wisconsin Hospital provided the microbial strains used in this study (9-12).

For a further data set, the system named is Aspergillus fumigatus. The experiment in a line: Agar disk diffusion. Type of data set: cell-based. The following applies: disks containing 1 μg of test compound; FIG. 4. The protocol:
Small molecule activity against the fungal pathogens Candida albicans and Aspergillus fumigatus was evaluated using an agar disk diffusion assay. Yeast (1×10^4) from an overnight culture of C. albicans was suspended in 600 μl of top agar (1% yeast extract (ThermoFisher), 2% peptone (ThermoFisher), 2% dextrose (Sigma), and 0.5% agar (Fisher)). This suspension was spread and allowed to solidify on 5 ml of base agar (YPD media containing 2% agar) in the well of a 6-well plate. Disks (6 mm AA, Whatman Inc., Piscataway, N.J., Cat#2017-006) were aseptically placed on a sterile Petri dish lid. Compounds selected from stage II (1 μg total) were each suspended in 100% dimethyl sulfoxide (DMSO) to a total volume of 5 μl, added to separate disks, and allowed to dry for five minutes. Fludioxonil (Sigma) and DMSO-only disks served as positive and negative controls, respectively. Disks were placed into separate wells and incubated at room temperature for 48 hours. Antifungal activity was determined based on the size of the zone of inhibition of C. albicans growth.
Activity against A. fumigatus was determined following the aforementioned disk diffusion assay. The protocol only differed in that 6.0×10^5 conidia were used instead of yeast, and the plates were incubated at 37° C. for 48 hours instead of room temperature (FIG. 4).

The test system of a further data set is Hik1 Saccharomyces. Briefly: Hik1 Saccharomyces reporter strain growth assay (small molecule screen). In kind it is cell-based. The following applies: FIG. 2. An excerpt:
To identify putative antifungals that act directly or indirectly through histidine kinase homologs of Drk1, we used a high throughput growth assay that uses a yeast reporter strain expressing a heterologous two-component sensor kinase (Hik1) to identify compounds that target the kinase and inhibit/kill the yeast. Hik1 and Drk1 are very closely related having near 80% amino acid sequence identity (FIG. 1). The Saccharomyces reporter contained an episomal plasmid with the hybrid histidine kinase Hik1 under the control of the galactose promoter (8). The Saccharomyces strain was provided by the Osada lab from RIKEN (Institute of Physical and Chemical Research, 2-1 Hirosawa, Wako, Saitama, 351-0198, Japan). It was used for screening initially. […]

Protocol for human red blood cells: Briefly, human red blood cells (RBCs) were isolated via FICOLL® (Sigma) gradient centrifugation and stored on ice. The RBCs were pelleted by centrifugation and washed with PBS a total of three times. A 2% RBC suspension in PBS was made and stored on ice for less than one hour. Drugs were suspended in DMSO and two-fold serial dilutions were prepared in PBS with a total volume of 100 μl in a 96-well round-bottom plate in triplicate. Wells containing PBS and Triton X-100 (Sigma) were used as negative and positive controls of hemolysis, respectively. A 100 μl aliquot of the 2% RBC suspension was then added to each well. The plate was then incubated at 37° C. for one hour. The plate was then centrifuged at 2,500 rpm for five minutes to pellet the RBCs. A 50 μl aliquot of the supernatant was transferred to a fresh 96-well plate, and absorbance at 405 nm was measured using an automated plate reader to quantify heme release.

As for `O=[N+]([O-])c1ccc(/C=C/c2ccc([N+](=O)[O-])o2)cc1` [Compound 13], the “Activity (MIC, cumulative inhibition)” value in the data set with C. gattii, in the data set on Cryptococcus neoformans, in the data set with C. glabrata, in the data set with C. krusei, in the data set on Candida albicans and in the data set on C. lusitaniae was “active” in each case. Besides, the “Activity (MIC, cumulative inhibition)” value in data set [1], in data set [2] and in [3] was “active” in each case. Further, the “Cumulative inhibition of Aspergillus flavus” value in the data set on Aspergillus flavus was “inhibition”. Besides, in the data set with human red blood cells, the “Hemolysis (heme release, absorbance at 405 nm) compared with amphotericin B” value is “less hemolytic”. Besides, the “Synergy with Fluconazole by fractional inhibitory concentration (FIC)” value with Candida albicans biofilm was “synergy”. For the same molecule, the growth reduction in the data set with Candida albicans biofilm (FIG. 9A, compound 13 experiment: fluconazole at 62.5 ug/ml, 13 at 0.8 ug/ml) came out at 18%. For the same molecule, the “Hik1 reporter strain results corroborated with Drk1 reporter strain” value in the data set with Drk1 reporter strain is “corroborated”. In the data set on Aspergillus fumigatus, the “Inhibition of Aspergillus growth (zone of inhibition)” value (from here on “Inhibition of Aspergillus growth”) was “inhibited growth”.

With `CSc1nnc(Sc2ncc([N+](=O)[O-])s2)s1` [Compound 33], the “Activity (MIC, cumulative inhibition)” value in the data set on C. gattii, in the data set with Cryptococcus neoformans, with C. glabrata, with C. krusei, in the data set with Candida albicans and in the data set on C. lusitaniae was “active” throughout. The “Activity (MIC, cumulative inhibition)” value in data set [1], in [2] and in data set [3] was “active” in each case. Further, the “Cumulative inhibition of Aspergillus flavus” value in the data set with Aspergillus flavus is on record as “inhibition”. In addition, the “Hemolysis (heme release, absorbance at 405 nm) compared with amphotericin B” value with human red blood cells is listed as “less hemolytic”. Further, the “Synergy with Fluconazole by fractional inhibitory concentration (FIC)” value in the data set with Candida albicans biofilm was “synergy”. In the data set with Candida albicans biofilm (FIG. 9B, compound 33 experiment: fluconazole at 62.5 ug/ml, 33 at 1.6 ug/ml), the growth reduction entry was “approximately 9%”. The “Hik1 reporter strain results corroborated with Drk1 reporter strain” value in the data set on Drk1 reporter strain is reported as “corroborated”. Moreover, the “Inhibition of Aspergillus growth” value with Aspergillus fumigatus is recorded as “inhibited growth”.

With `C[C@@H]1[C@H](O)[C@@H](C)/C=C/C=C/C=C/C=C/C=C/C=C/C=C/[C@H](O[C@@H]2O[C@H](C)[C@@H](O)[C@H](N)[C@@H]2O)C[C@@H]2O[C@](O)(C[C@@H](O)C[C@@H](O)[C@H](O)CC[C@@H](O)C[C@@H](O)CC(=O)O[C@H]1C)C[C@H](O)[C@H]2C(=O)O` [amphotericin B, reference compound], in the data set with Aspergillus fumigatus, the “Inhibition of Aspergillus growth” value was “created zones of inhibition”.

On to `N#Cc1c[nH]cc1-c1cccc2c1OC(F)(F)O2` [fludioxonil], for which the “Growth of Hik1 Saccharomyces on galactose with fludioxonil” value in the data set with Hik1 Saccharomyces (galactose (Hik1 induced)) is “inhibited Saccharomyces growth”. For the same molecule, the “Growth of Hik1 Saccharomyces in glucose with fludioxonil” value in the data set with Hik1 Saccharomyces (glucose, which does not induce Hik1) is listed as “uninhibited”. Besides, the “Inhibition of Aspergillus growth” value in the data set with Aspergillus fumigatus is reported as “created zones of inhibition”.
